Data on 17 molecules can be found in PMC10303200 (ACS Central Science, 2023).

Holding throughout (format): binding
Assay [1] addresses T1, Sig7-Fc (Homo sapiens, UniProt Q9Y286). Nature of the assay: COIN-CaR-nMS with purified oligosaccharides listed beside the library glycans, 200 mM ammonium acetate, pH 6.9. Also on record: gene SIGLEC7; residues 1-345, human IgG1 Fc fusion and C-terminal His6, from CHO cells, MW 150 kDa.
Target sequence in this assay (Q9Y286 1-345): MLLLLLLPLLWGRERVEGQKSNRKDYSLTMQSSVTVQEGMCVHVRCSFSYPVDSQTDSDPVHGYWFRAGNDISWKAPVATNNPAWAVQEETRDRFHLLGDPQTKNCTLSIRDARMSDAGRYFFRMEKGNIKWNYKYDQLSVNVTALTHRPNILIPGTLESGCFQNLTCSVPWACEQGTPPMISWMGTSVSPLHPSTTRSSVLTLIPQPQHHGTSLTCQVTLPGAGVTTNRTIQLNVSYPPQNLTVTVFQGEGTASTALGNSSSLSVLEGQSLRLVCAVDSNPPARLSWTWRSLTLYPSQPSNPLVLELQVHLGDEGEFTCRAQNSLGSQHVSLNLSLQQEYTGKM
For assay [2], the target named is T2, GAL-7 (Homo sapiens, UniProt P47929).
T2 construct: gene LGALS7; homodimer (monomer MW 14.94 kDa)
T2 sequence (P47929 whole entry): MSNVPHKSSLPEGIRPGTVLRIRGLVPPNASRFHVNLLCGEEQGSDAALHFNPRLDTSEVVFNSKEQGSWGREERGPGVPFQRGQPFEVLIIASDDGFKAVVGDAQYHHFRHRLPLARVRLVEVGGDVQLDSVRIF
Nature of the assay: COIN-nMS of the GAL-7 homodimer with a mixture of ten glycans (G2, G5-G13), 200 mM ammonium acetate, pH 6.9. To be noted: SD, n = 8; read-out: Kd (COIN-nMS), Table S4.

Assay [3] deals with T3, GAL-3C (Homo sapiens, UniProt P17931). Description: Direct native ESI-MS with a mixture of ten glycans (G2, G5-G13), 200 mM ammonium acetate, pH 6.9. Also noted: gene LGALS3; C-terminal carbohydrate recognition domain fragment, residues 107-250. Particulars: SD, n = 8; read-out: Kd (nMS), Table S3.
T3 sequence (P17931 107-250): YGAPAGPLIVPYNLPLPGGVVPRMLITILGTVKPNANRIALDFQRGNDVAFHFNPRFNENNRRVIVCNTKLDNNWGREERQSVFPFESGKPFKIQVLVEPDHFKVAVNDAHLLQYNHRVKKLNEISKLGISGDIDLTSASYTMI
Assay [4] concerns the target T3, GAL-3C. Nature of the assay: COIN-nMS with a mixture of ten glycans (G2, G5-G13), 200 mM ammonium acetate, pH 6.9. Also on record: gene LGALS3; C-terminal carbohydrate recognition domain fragment, residues 107-250. To be noted: SD, n = 8; read-out: Kd (COIN-nMS), Table S3.
In assay [5] the target is T2, GAL-7. Description: Direct native ESI-MS of the GAL-7 homodimer with a mixture of ten glycans (G2, G5-G13), 200 mM ammonium acetate, pH 6.9. To be noted: SD, n = 8; read-out: Kd (nMS), Table S4.
In assay [6] the target is T1, Sig7-Fc. Description: COIN-CaR-nMS. Also on record: Siglec 7-Fc (Sig7-Fc, residue 1–345, MW 150 kDa); His6 (C); made in house; host or cells: wild-type CHO cells.
Target sequence in this assay (Q9Y286 19-345): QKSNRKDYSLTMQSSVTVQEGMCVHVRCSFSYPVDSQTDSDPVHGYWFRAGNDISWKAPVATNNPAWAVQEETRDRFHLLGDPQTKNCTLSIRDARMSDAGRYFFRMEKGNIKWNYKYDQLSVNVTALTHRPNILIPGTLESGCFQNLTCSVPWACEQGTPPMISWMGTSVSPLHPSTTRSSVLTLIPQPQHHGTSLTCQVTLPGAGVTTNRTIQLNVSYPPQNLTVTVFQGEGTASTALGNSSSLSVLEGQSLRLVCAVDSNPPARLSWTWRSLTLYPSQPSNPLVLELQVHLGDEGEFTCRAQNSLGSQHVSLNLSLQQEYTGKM
Setting [7] is: SD; read-out: Kd, purified oligosaccharides in Tables S12, S13, S18, S19.
The mark [8] stands for this setting: N-glycan natural libraries and purified oligosaccharides, pH 6.9, read-out: Kd.
Where [9] appears, read: read-out: Kd, purified oligosaccharides in Tables S12, S13, S18, S19; SD.

By Kd is commonly meant a measure of binding affinity in units of concentration. Consider `CC(=O)NC1C(O)CC(OC(CO)C(O)C2OC(OC(CO)C(O)C3OC(OC4C(O)C(CO)OC(OC5C(CO)OC(O)C(O)C5O)C4O)(C(=O)O)CC(O)C3NC(C)=O)(C(=O)O)CC(O)C2NC(C)=O)(C(=O)O)OC1C(O)C(O)CO` [GT3, GT3 oligosaccharide, α-D-Neu5Ac-(2→8)-α-D-Neu5Ac-(2→8)-α-D-Neu5Ac-(2→3)-β-D-Gal-(1→4)-D-Glc], for which the dissociation constant Kd in assay [1] (SD) is 184 µM.

Take `CC(=O)N[C@H]1[C@H]([C@H](O)[C@H](O)CO)O[C@@](O[C@H](CO)[C@@H](O)[C@@H]2O[C@@](O[C@H]3[C@@H](O)[C@@H](CO)O[C@@H](O[C@H]4[C@H](O)[C@@H](O)C(O)O[C@@H]4CO)[C@@H]3O)(C(=O)O)C[C@H](O)[C@H]2NC(C)=O)(C(=O)O)C[C@@H]1O` (stereo partly drawn) [GD3, GD3 oligosaccharide, α-D-Neu5Ac-(2→8)-α-D-Neu5Ac-(2→3)-β-D-Gal-(1→4)-D-Glc]: the Kd in assay [1] (setting [7]) came to 97 µM.

Regarding `CC(=O)N[C@H]1[C@H](O[C@H]2[C@@H](O)[C@@H](CO)O[C@@H](O[C@H]3[C@H](O[C@@H]4O[C@@H](C)[C@@H](O)[C@@H](O)[C@@H]4O)[C@@H](O)C(O)O[C@@H]3CO)[C@@H]2O)O[C@H](CO)[C@@H](O)[C@@H]1O[C@@H]1O[C@H](CO)[C@H](O)[C@H](O)[C@H]1O` (stereo partly drawn) [G6, β-D-Gal(1→3)-β-D-GlcNAc(1→3)-β-D-Gal(1→4)-[α-L-Fuc(1→3)]-β-D-Glc], the Kd is 278 µM in assay [2], 26.8 µM in assay [3], 101 µM in assay [4] and 232 µM in assay [5].

Regarding “α-D-GalNAc(1→4)-[α-D-Neu5Ac-(2→3)]-β-D-Gal-(1→4)-D-Glc [Glycan G28]”, the Kd in assay [6] (setting [8]) worked out at 460 ± 117 µM.

For the molecule `CC(=O)N[C@H]1[C@H](O[C@@H]2[C@H](O[C@]3(C(=O)O)C[C@H](O)[C@@H](NC(C)=O)[C@H]([C@H](O)[C@@H](CO)O[C@]4(C(=O)O)C[C@H](O)[C@@H](NC(C)=O)[C@H]([C@H](O)[C@H](O)CO)O4)O3)[C@@H](O)[C@H](O[C@H]3[C@H](O)[C@@H](O)C(O)O[C@@H]3CO)O[C@@H]2CO)O[C@H](CO)[C@H](O)[C@@H]1O[C@@H]1O[C@H](CO)[C@H](O)[C@H](O)[C@H]1O` (stereo partly drawn) [GD1b, GD1b oligosaccharide, β-D-Gal(1→3)-α-D-GalNAc(1→4)-[α-D-Neu5Ac-(2→8)-α-D-Neu5Ac-(2→3)]-β-D-Gal-(1→4)-D-Glc], the Kd in assay [1] (setting [7]) worked out at 1220 µM.

In the case of `CC(=O)N[C@H]1[C@H](O[C@@H]2[C@H](O[C@]3(C(=O)O)C[C@H](O)[C@@H](NC(C)=O)[C@H]([C@H](O)[C@H](O)CO)O3)[C@@H](O)[C@H](O[C@H]3[C@H](O)[C@@H](O)C(O)O[C@@H]3CO)O[C@@H]2CO)O[C@H](CO)[C@H](O)[C@@H]1O[C@@H]1O[C@H](CO)[C@H](O)[C@H](O)[C@H]1O` (stereo partly drawn) [GM1, GM1 oligosaccharide, β-D-Gal(1→3)-α-D-GalNAc(1→4)-[α-D-Neu5Ac-(2→3)]-β-D-Gal-(1→4)-D-Glc], the Kd in assay [1] (setting [7]) is 437 µM.

As to `CC(=O)NC1C(OC2C(CO)OC(OC3C(CO)OC(O)C(O)C3O)C(O)C2OC2(C(=O)O)CC(O)C(NC(C)=O)C(C(O)C(CO)OC3(C(=O)O)CC(O)C(NC(C)=O)C(C(O)C(CO)OC4(C(=O)O)CC(O)C(NC(C)=O)C(C(O)C(O)CO)O4)O3)O2)OC(CO)C(O)C1O` [GT2, GT2 oligosaccharide, α-D-GalNAc(1→4)-[α-D-Neu5Ac-(2→8)-α-D-Neu5Ac-(2→8)-α-D-Neu5Ac-(2→3)]-β-D-Gal-(1→4)-D-Glc], the Kd in assay [1] (setting [9]) was found to be 235 µM.

For the molecule `CC(=O)NC1C(OC2C(CO)OC(OC3C(CO)OC(O)C(O)C3O)C(O)C2OC2(C(=O)O)CC(O)C(NC(C)=O)C(C(O)C(O)CO)O2)OC(CO)C(O)C1O` [GM2, GM2 oligosaccharide, α-D-GalNAc(1→4)-[α-D-Neu5Ac-(2→3)]-β-D-Gal-(1→4)-D-Glc], the Kd in assay [1] (setting [9]) stood at 460 µM.

As to “β-D-Gal(1→3)-α-D-GalNAc(1→4)-[α-D-Neu5Ac-(2→8)-α-D-Neu5Ac-(2→8)-α-D-Neu5Ac-(2→3)]-β-D-Gal-(1→4)-D-Glc [Glycan G33]”, the Kd result in assay [6] (N-glycan natural libraries and purified oligosaccharides, pH 6.9, listed as GT1c) is given as “weak or no binding”.

As for “α-D-Neu5Ac-(2→8)-α-D-Neu5Ac-(2→8)-α-D-Neu5Ac-(2→3)-β-D-Gal-(1→4)-D-Glc [Glycan G27]”, the Kd in assay [6] (setting [8]) stood at 184 ± 41 µM.

As to `CC(=O)N[C@H]1[C@H](O[C@H]2[C@@H](O)[C@@H](CO)O[C@@H](O[C@H]3[C@H](O)[C@@H](O)C(O)O[C@@H]3CO)[C@@H]2O)O[C@H](CO)[C@@H](O[C@@H]2O[C@H](CO)[C@H](O)[C@H](O)[C@H]2O)[C@@H]1O` (stereo partly drawn) [G9, β-D-Gal-(1→4)-β-D-GlcNAc-(1→3)-β-D-Gal-(1→4)-β-D-Glc], the dissociation constant (Kd) in assay [2] amounted to 439 µM; in assay [3], 23.2 µM; in assay [4], 12.9 µM; in assay [5], 348 µM.

Consider `CC(=O)N[C@H]1[C@H](O[C@@H]2[C@H](O[C@]3(C(=O)O)C[C@H](O)[C@@H](NC(C)=O)[C@H]([C@H](O)[C@@H](CO)O[C@]4(C(=O)O)C[C@H](O)[C@@H](NC(C)=O)[C@H]([C@H](O)[C@H](O)CO)O4)O3)[C@@H](O)[C@H](O[C@H]3[C@H](O)[C@@H](O)C(O)O[C@@H]3CO)O[C@@H]2CO)O[C@H](CO)[C@H](O)[C@@H]1O` (stereo partly drawn) [G29, GD2 oligosaccharide, α-D-GalNAc(1→4)-[α-D-Neu5Ac-(2→8)-α-D-Neu5Ac-(2→3)]-β-D-Gal-(1→4)-D-Glc], for which, in assay [1] (setting [7]), the dissociation constant (Kd) was determined as 205 µM.

Turning to `CC(=O)N[C@H]1[C@H](O[C@@H]2[C@H](O[C@]3(C(=O)O)C[C@H](O)[C@@H](NC(C)=O)[C@H]([C@H](O)[C@@H](CO)O[C@]4(C(=O)O)C[C@H](O)[C@@H](NC(C)=O)[C@H]([C@H](O)[C@H](O)CO)O4)O3)[C@@H](O)[C@H](O[C@H]3[C@H](O)[C@@H](O)C(O)O[C@@H]3CO)O[C@@H]2CO)O[C@H](CO)[C@H](O)[C@@H]1O` (stereo partly drawn) [Glycan G29, α-D-GalNAc(1→4)-[α-D-Neu5Ac-(2→8)-α-D-Neu5Ac-(2→3)]-β-D-Gal-(1→4)-D-Glc], the Kd was found to be 184 ± 5 µM in assay [6] (G21 1.0 μM and G29 30 μM, read-out: Kd (COIN-CaR-nMS), two ligands); 240 ± 2 µM in assay [6] (G21 5 μM and G29 30 μM, read-out: Kd (COIN-CaR-nMS), two ligands); 240 ± 10 µM in assay [6] (G21 10 μM and G29 30 μM, read-out: Kd (COIN-CaR-nMS), two ligands).

Consider `CC(=O)N[C@H]1[C@H](O[C@H]2[C@@H](O)[C@@H](CO)O[C@@H](O[C@H]3[C@H](O)[C@@H](NC(C)=O)[C@H](O[C@H]4[C@@H](O)[C@@H](CO)O[C@@H](O[C@H]5[C@H](O)[C@@H](O)C(O)O[C@@H]5CO)[C@@H]4O)O[C@@H]3CO)[C@@H]2O)O[C@H](CO)[C@@H](O[C@@H]2O[C@H](CO)[C@H](O)[C@H](O)[C@H]2O)[C@@H]1O` (stereo partly drawn) [G7, β-D-Gal-(1→4)-β-D-GlcNAc(1→3)-β-D-Gal(1→4)-β-D-GlcNAc(1→3)-β-D-Gal(1→4)-β-D-Glc], for which the Kd in assay [2] turned out to be 362 µM; in assay [3], 5 µM; in assay [4], 2.9 µM; in assay [5] it was 348 µM.

As to `CC(=O)N[C@H]1[C@@H](O[C@H]2[C@@H](O)[C@@H](CO)O[C@@H](O[C@H]3[C@H](O)[C@@H](CO)O[C@@H](O[C@H]4[C@@H](O)[C@@H](CO)O[C@@H](O[C@H]5[C@H](O)[C@@H](O)C(O)O[C@@H]5CO)[C@@H]4O)[C@@H]3NC(C)=O)[C@@H]2O[C@@H]2O[C@@H](C)[C@@H](O)[C@@H](O)[C@@H]2O)O[C@H](CO)[C@H](O)[C@@H]1O` (stereo partly drawn) [G13, α-D-GalNAc-(1→3)-[α-L-Fuc-(1→2)]-β-D-Gal-(1→3)-β-D-GlcNAc-(1→3)-β-D-Gal-(1→4)-β-D-Glc], the Kd in assay [2] came out at 261 µM; in assay [3], 4.6 µM; in assay [4], 2.4 µM; in assay [5] it was 261 µM.

On to `CC(=O)N[C@H]1[C@@H](O[C@H]2[C@@H](O)[C@@H](CO)O[C@@H](O[C@H]3[C@H](O)[C@@H](O)C(O)O[C@@H]3CO)[C@@H]2O[C@@H]2O[C@@H](C)[C@@H](O)[C@@H](O)[C@@H]2O)O[C@H](CO)[C@H](O)[C@@H]1O` (stereo partly drawn) [G12, α-D-GalNAc-(1→3)-[α-L-Fuc-(1→2)]-β-D-Gal-(1→4)-β-D-Glc], for which the dissociation constant (Kd) in assay [2] is 333 µM; in assay [3], 11.3 µM; in assay [4] it was 10.4 µM; in assay [5] it was 184 µM.

Consider `CC(=O)N[C@H]1[C@H](O[C@H]2[C@@H](O)[C@@H](CO)O[C@@H](O[C@H]3[C@H](O)[C@@H](NC(C)=O)[C@H](O[C@H]4[C@@H](O)[C@@H](CO)O[C@@H](O[C@H]5[C@H](O)[C@@H](NC(C)=O)[C@H](O[C@H]6[C@@H](O)[C@@H](CO)O[C@@H](O[C@H]7[C@H](O)[C@@H](O)C(O)O[C@@H]7CO)[C@@H]6O)O[C@@H]5CO)[C@@H]4O)O[C@@H]3CO)[C@@H]2O)O[C@H](CO)[C@@H](O[C@@H]2O[C@H](CO)[C@H](O)[C@H](O)[C@H]2O)[C@@H]1O` (stereo partly drawn) [G8, β-D-Gal-(1→4)-β-D-GlcNAc-(1→3)-β-D-Gal-(1→4)-β-D-GlcNAc-(1→3)-β-D-Gal-(1→4)-β-D-GlcNAc-(1→3)-β-D-Gal-(1→4)-β-D-Glc], for which the Kd was determined as 232 µM in assay [2], 5.5 µM in assay [3], 5.8 µM in assay [4] and 178 µM in assay [5].
